{"source": "patent US8722903B2", "about": "“Indazole derivatives for the treatment of HSP9O-induced diseases” (Merck Patent GmbH, priority 2006, dated 2014)"}
{"target": "T1, Recombinant human HSP90α (Homo sapiens, UniProt P07900)", "T1 construct": "host or cells: E. coli", "assay": "Radioligand filter binding test: competitive inhibition of [3H]17AAG binding to HSP90", "conditions": "[3H]17AAG 0.08 μM, HSP90 1.5 μg/assay, 22° C., 30 min", "experimental": "In the specific case, a radioligand filter binding test is used. The radioligand used here is tritium-labelled 17-allylaminogeldanamycin, [3H]17AAG, This filter binding test allows a targeted search for inhibitors which interfere with the ATP binding site.\nRecombinant human HSP90α (E. coli expressed, 95% purity);\nHEPES filter buffer (50 mM HEPES, pH 7.0, 5 mM MgCl2, BSA 0.01%) Multiscreen FB (1 μm) filter plate (Millipore, MAFBNOB 50).\nThe 96-well microtitre filter plates are firstly irrigated and coated with 0.1% of polyethylenimine.\nThe test is carried out under the following conditions:\nReaction temperature 22° C.\nReaction time: 30 min., shaking at 800 rpm\n50 mM HEPES HCl, pH 7.0, 5 mM MgCl2, 0.01% (w/v) of BSA\nAt the end of the reaction, the supernatant in the filter plate is removed by suction with the aid of a vacuum manifold (Multiscreen Separation System, Millipore), and the filter is washed twice.\nThe filter plates are then measured in a beta counter (Microbeta, Wallac) with scintillator (Microscint 20, Packard).\n“% of control” is determined from the “counts per minutes” values, and the IC-50 value of a compound is calculated therefrom.", "units": {"IC50": "nM"}}
{"compound": "COCCN(C)C(=O)c1cc2c(Cc3ccccc3Cl)n[nH]c2cc1O", "note": "[Compound A34, 5-[N-(2-Methoxyethyl)-N-methylaminocarbonyl]-3-(2-chlorobenzyl)-6-hydroxy-1H-indazole]", "IC50": "> 10000"}
{"compound": "CCCc1n[nH]c2cc(O)c(C(=O)N(C)Cc3ccccc3)cc12", "note": "[Compound A178, 5-(N-Benzyl-N-methylaminocarbonyl)-3-propyl-6-hydroxy-1H-indazole]", "IC50": "10 to 1000"}
{"compound": "CN(C(=O)c1cc2c(CC3CCCC3)n[nH]c2cc1O)c1ccc2c(c1)OCO2", "note": "[Compound A260, 5-[N-(Benzo-1,3-dioxol-5-yl)-N-methylaminocarbonyl]-3-cyclopentylmethyl-6-hydroxy-1H-indazole]", "IC50": "10 to 1000"}
{"compound": "CCCc1n[nH]c2cc(O)c(C(=O)N(C)c3ccc4c(c3)OCO4)cc12", "note": "[Compound A175, 5-[N-(Benzo-1,3-dioxol-5-yl)-N-methylaminocarbonyl]-3-propyl-6-hydroxy-1H-indazole]", "IC50": "10 to 1000"}
{"compound": "CN(Cc1cccc(C(F)(F)F)c1)C(=O)c1cc2c(Cc3ccccc3)n[nH]c2cc1O", "note": "[Compound A29, 5-[N-(3-Trifluoromethylbenzyl)-N-methylaminocarbonyl]-3-benzyl-6-hydroxy-1H-indazole]", "IC50": "1000 to 10000"}
{"compound": "CCCN(C)C(=O)c1cc2c(CCc3ccccc3)n[nH]c2cc1O", "note": "[Compound A182, 5-(N-Propyl-N-methylaminocarbonyl)-3-phenethyl-6-hydroxy-1H-indazole]", "IC50": "1000 to 10000"}
{"compound": "CCCN(C)C(=O)c1cc2c(Cc3cc(C)cc(F)c3)n[nH]c2cc1O", "note": "[Compound A52, 5-(N-Propyl-N-methylaminocarbonyl)-3-(3-fluoro-5-methylbenzyl)-6-hydroxy-1H-indazole]", "IC50": "1000 to 10000"}
{"compound": "CN(Cc1ccccc1)C(=O)c1cc2c(Cc3ccccc3)n[nH]c2cc1O", "note": "[Compound A6, 5-(N-Benzyl-N-methylaminocarbonyl)-3-benzyl-6-hydroxy-1H-indazole]", "IC50": "10 to 1000"}
{"compound": "CCCN(C)C(=O)c1cc2c(Cc3cccc(Cl)c3)n[nH]c2cc1O", "note": "[Compound A42, 5-(N-Propyl-N-methylaminocarbonyl)-3-(3-chlorobenzyl)-6-hydroxy-1H-indazole]", "IC50": "10 to 1000"}
{"compound": "CC(=O)N1CCc2cc(N(C)C(=O)c3cc4c(Cc5cccc(C)c5)n[nH]c4cc3O)ccc21", "note": "[Compound A157, 5-[N-(1-Acetyl-2,3-dihydro-1H-indol-5-yl)-N-methylaminocarbonyl]-3-(3-methylbenzyl)-6-hydroxy-1H-indazole]", "IC50": "10 to 1000"}
{"compound": "COCCN(C)C(=O)c1cc2c(Cc3ccccc3)n[nH]c2cc1O", "note": "[Compound A7, 5-[N-(2-Methoxyethyl)-N-methylaminocarbonyl]-3-benzyl-6-hydroxy-1H-indazole]", "IC50": "1000 to 10000"}
